Drawing on ChEMBL document CHEMBL3046630, “Isolation and antifungal and antioomycete activities of staurosporine from Streptomyces roseoflavus strain LS-A24” (J Agric Food Chem, 2006), this text covers Activity for 2 molecules.

Molecules are shown by their SMILES. Calls of active or inactive are those of the source. The rule behind the calls is not given here.

Series [1] relates to Phytophthora capsici. As to the kind of experiment: Antioomycete activity against Phytophthora capsici zoospores suspension infected in pepper plants (cv. Hanbyul) at first branch stage pre-exposed to compound spray on stems before fungal infection assessed as reduction in Phyophthora blight disease severity at 1 to 1000 ug/mL under greenhouse conditions. It is filed as functional, organism-based.

The subject of series [2] is Phytophthora capsici. As to the kind of experiment: Antioomycete activity against Phytophthora capsici zoospores suspension infected in pepper plants (cv. Hanbyul) at first branch stage pre-exposed to compound spray on stems before fungal infection assessed as reduction in Phyophthora blight disease severity at 100 ug/mL under greenhouse conditions. It counts as functional, organism-based.

In a further series the test system is Capsicum annuum. Description: Phytotoxicity in Phytophthora capsici zoospores suspension infected Capsicum annuum cv. Hanbyul (pepper) at first branch stage pre-exposed to compound spray on stems before fungal infection at 500 ug/mL under greenhouse conditions. It counts as organism-based. To be noted: in vivo, other.
Series [3] has as its system Phytophthora capsici. As to the kind of experiment: Antioomycete activity against Phytophthora capsici zoospores suspension infected in pepper plants (cv. Hanbyul) at first branch stage pre-exposed to compound spray on stems before fungal infection assessed as reduction in Phyophthora blight disease severity at 500 ug/mL under greenhouse conditions. It is filed as functional, organism-based.

For the molecule `COCC(=O)N(c1c(C)cccc1C)C(C)C(=O)OC` (stereo not given), the Activity result in the series with Phytophthora capsici [1] was “Dose-dependent effect”. Further, the result with Phytophthora capsici [2] was Active.
For the molecule `CN[C@@H]1C[C@H]2O[C@@](C)([C@@H]1OC)n1c3ccccc3c3c4c(c5c6ccccc6n2c5c31)C(=O)NC4` [STAUROSPORINE], the values for the Activity result in the series with Phytophthora capsici [1] and with Capsicum annuum were “Dose-dependent effect” and “Non-toxic”, respectively. Further, the result with Phytophthora capsici [3] was Active.
